Data on 13 compounds can be found in US10280159B2 (AbbVie Deutschland GmbH & Co. KG, priority 2015, dated 2019).

Bounds are passed on as bounds.

Type in all cases: cell-based
One assay has as its target T1, human S1PR5 (Homo sapiens, UniProt Q9H228).
T1 construct: host or cells: CHO-K1
Kind of assay: Intracellular Ca2+ release (FLIPR) agonist potency, S1P5. Conditions: recombinant CHO-K1 cells expressing human S1PR5, aequorin, Gq/i5; Calcium 5 FLIPR; read-out: S1P5 EC50 range. Summed up: (§1)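 CHO-K1 cells recombinantly expressing the human S1P receptor plus aequorin and Gq/i5 were grown in F-12 Ham with 10% FBS. Agonist-induced intracellular Ca2+ release was read on a FLIPR Tetra. EC50 came from nonlinear fits of raw fluorescence normalized to the phospho-fingolimod reference curve.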

The next assay deals with T2, human S1PR1 (Homo sapiens, UniProt P21453).
T2 construct: host or cells: CHO-K1
Kind of assay: Intracellular Ca2+ release (FLIPR) agonist potency, S1P1. Particulars: recombinant CHO-K1 cells expressing human S1PR1, aequorin, Gq/i5; Calcium 5 FLIPR; read-out: S1P1 EC50. Summed up: as §1

The target of a further assay is T3, human S1PR4 (Homo sapiens, UniProt O95977).
T3 construct: host or cells: CHO-K1
T3 sequence (O95977 1-384): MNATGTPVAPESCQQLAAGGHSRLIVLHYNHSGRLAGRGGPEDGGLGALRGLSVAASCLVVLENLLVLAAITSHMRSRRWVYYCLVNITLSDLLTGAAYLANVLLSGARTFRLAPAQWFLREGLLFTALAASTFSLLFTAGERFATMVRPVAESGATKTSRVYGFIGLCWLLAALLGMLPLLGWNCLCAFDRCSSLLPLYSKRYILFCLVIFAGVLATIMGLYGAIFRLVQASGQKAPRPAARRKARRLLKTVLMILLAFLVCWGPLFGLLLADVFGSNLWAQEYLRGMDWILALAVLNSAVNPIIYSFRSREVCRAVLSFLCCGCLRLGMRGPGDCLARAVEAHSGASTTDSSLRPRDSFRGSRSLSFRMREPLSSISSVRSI
Kind of assay: Intracellular Ca2+ release (FLIPR) agonist potency, S1P4. Particulars: recombinant CHO-K1 cells expressing human S1PR4, aequorin, Gq/i5; Calcium 5 FLIPR; read-out: S1P4 EC50. Summed up:
as §1

T1 sequence (Q9H228 whole entry): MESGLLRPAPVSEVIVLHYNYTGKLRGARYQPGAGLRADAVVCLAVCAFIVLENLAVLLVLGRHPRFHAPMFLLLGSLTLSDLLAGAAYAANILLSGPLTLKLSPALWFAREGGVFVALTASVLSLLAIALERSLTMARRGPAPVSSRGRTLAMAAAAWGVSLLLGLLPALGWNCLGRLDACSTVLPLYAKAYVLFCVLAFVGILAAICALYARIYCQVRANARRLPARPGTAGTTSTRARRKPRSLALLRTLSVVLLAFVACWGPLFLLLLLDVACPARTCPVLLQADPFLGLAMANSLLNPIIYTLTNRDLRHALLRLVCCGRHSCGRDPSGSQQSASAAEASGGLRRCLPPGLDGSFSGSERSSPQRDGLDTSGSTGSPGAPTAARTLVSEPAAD
T2 sequence (P21453 whole entry): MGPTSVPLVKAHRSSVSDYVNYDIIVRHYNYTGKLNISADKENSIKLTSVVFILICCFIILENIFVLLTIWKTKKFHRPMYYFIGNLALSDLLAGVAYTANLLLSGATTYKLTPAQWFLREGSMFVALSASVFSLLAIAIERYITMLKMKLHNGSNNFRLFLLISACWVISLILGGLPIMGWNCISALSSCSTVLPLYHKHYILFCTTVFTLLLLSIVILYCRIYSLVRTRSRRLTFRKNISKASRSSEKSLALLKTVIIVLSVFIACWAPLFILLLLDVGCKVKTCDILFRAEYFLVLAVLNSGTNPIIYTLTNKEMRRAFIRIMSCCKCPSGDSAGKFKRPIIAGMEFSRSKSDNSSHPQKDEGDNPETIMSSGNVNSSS

Broadly, the EC50 is the concentration giving half of the maximal effect. Regarding `CSc1ccc(COc2ccc3c(c2)CCC(OCCC(=O)O)C3)cc1` (stereo not drawn) [Compound 182, 3-[6-[(4-methylsulfanylphenyl)methoxy]tetralin-2-yl]oxypropanoic acid], the results for the EC50 at human S1PR5, on human S1PR1 and at human S1PR4 were 1 to 10 µM, over 1 µM and over 1 µM, respectively.
As for `O=C(O)CCOC1CCc2cc(OCc3ccc(C(F)(F)F)cc3)ccc2C1` (stereo not drawn) [Compound 183, 3-[6-[[4-(trifluoromethyl)phenyl]methoxy]tetralin-2-yl]oxypropanoic acid], the EC50 on human S1PR5 was 1 to 10 µM; on human S1PR1 it was over 1 µM; at human S1PR4 it was over 1 µM.
`O=C(O)CCOC1CCc2cc(OCc3cccc(OC(F)(F)F)c3)ccc2C1` (stereo not drawn) [Compound 184, 3-[6-[[3-(trifluoromethoxy)phenyl]methoxy]tetralin-2-yl]oxypropanoic acid]: the results for the EC50 at human S1PR5, at human S1PR1 and on human S1PR4 were 1 to 10 µM, over 1 µM and over 1 µM, respectively.
As to `O=C(O)CCOC1CCc2cc(OCc3ccc(OC(F)(F)F)cc3)ccc2C1` (stereo not drawn) [Compound 185, 3-[6-[[4-(trifluoromethoxy)phenyl]methoxy]tetralin-2-yl]oxypropanoic acid], the 50% effective concentration (EC50) at human S1PR5 was 1 to 10 µM; at human S1PR1, over 1 µM; at human S1PR4, over 1 µM.
`O=C(O)CCOC1CCc2cc(OCc3cccc(F)c3F)ccc2C1` (stereo not drawn) [Compound 186, 3-[6-[(2,3-difluorophenyl)methoxy]tetralin-2-yl]oxypropanoic acid]: the EC50 on human S1PR5 is 1 to 10 µM; on human S1PR1 it was over 1 µM; at human S1PR4, over 1 µM.
Consider `O=C(O)CCOC1CCc2cc(OCc3ccccc3Cl)ccc2C1` (stereo not drawn) [Compound 188, 3-[6-[(2-chlorophenyl)methoxy]tetralin-2-yl]oxypropanoic acid], for which the results for the EC50 on human S1PR5, on human S1PR1 and at human S1PR4 were 1 to 10 µM, over 1 µM and over 1 µM, respectively.
With `O=C(O)CCOC1CCc2cc(OCc3cccc(Cl)c3Cl)ccc2C1` (stereo not drawn) [Compound 189, 3-[6-[(2,3-dichlorophenyl)methoxy]tetralin-2-yl]oxypropanoic acid], the values for the EC50 at human S1PR5, at human S1PR1 and on human S1PR4 were 1 to 10 µM, over 1 µM and over 1 µM, respectively.
For `O=C(O)CCOC1CCc2cc(OCc3ccccc3OC(F)(F)F)ccc2C1` (stereo not drawn) [Compound 190, 3-[6-[[2-(trifluoromethoxy)phenyl]methoxy]tetralin-2-yl]oxypropanoic acid], the values for the 50% effective concentration (EC50) on human S1PR5, at human S1PR1 and at human S1PR4 were 1 to 10 µM, over 1 µM and over 1 µM, respectively.
As for `O=C(O)CCOC1CCc2cc(OCc3ccc(Cl)cc3)ccc2C1` (stereo not drawn) [Compound 191, 3-[6-[(4-chlorophenyl)methoxy]tetralin-2-yl]oxypropanoic acid], the figures for the EC50 at human S1PR5, on human S1PR1 and on human S1PR4 were 1 to 10 µM, over 1 µM and over 1 µM, respectively.
As to `CC(C)(C)c1ccc(COc2ccc3c(c2)CCC(OCCC(=O)O)C3)cc1` (stereo not drawn) [Compound 192, 3-[6-[(4-tert-butylphenyl)methoxy]tetralin-2-yl]oxypropanoic acid], the figures for the EC50 at human S1PR5, at human S1PR1 and on human S1PR4 were 1 to 10 µM, over 1 µM and over 1 µM, respectively.
On to `O=C(O)CCOC1CCc2cc(OCc3ccc(F)cc3)ccc2C1` (stereo not drawn) [Compound 194, 3-[6-[(4-fluorophenyl)methoxy]tetralin-2-yl]oxypropanoic acid], for which the EC50 was 1 to 10 µM at human S1PR5, over 1 µM on human S1PR1 and over 1 µM at human S1PR4.
Consider `Cc1ccc(C(F)(F)F)c(COc2ccc3c(c2)CCC(OCC(=O)O)C3)c1` (stereo not drawn) [Compound 195, 2-[6-[[5-methyl-2-(trifluoromethyl)phenyl]methoxy]tetralin-2-yl]oxyacetic acid], for which the EC50 is 1 to 10 µM at human S1PR5, over 1 µM at human S1PR1 and over 1 µM on human S1PR4.
Turning to `O=C(O)COC1CCc2cc(OCc3ccccc3C(F)(F)F)ccc2C1` (stereo not drawn) [Compound 196, 2-[6-[[2-(trifluoromethyl)phenyl]methoxy]tetralin-2-yl]oxyacetic acid], the EC50 was 0.1 to 1 µM at human S1PR5, over 1 µM at human S1PR1 and over 1 µM at human S1PR4.
